These are literature values, as cited in patent US11369498B2, “Stent and stent delivery system with improved deliverability” (MT Acquisition Holdings LLC, priority 2010, dated 2022).

For this data set the following is noted: 25 C.

`[Cl-].[Na+]` [NaCl]: the Water sol was 35.7 g/100 g.
